Results taken from US12606543B2, “Indole derivatives as serotonergic agents useful for the treatment of disorders related thereto” (priority 2023, dated 2026).
Like-named read-outs stand apart in the source and are kept apart here.

Legend:
[1] = Pharmacokinetic studies in rat (i.v.); assay type: in vivo; details: male, Sprague-Dawley, plasma
Protocol: Animals: Male Sprague-Dawley rats (˜225-350 g) from Charles River Labs were acclimatized for a minimum of 5 days prior to start of study procedures. Body weights were recorded on the day of dosing.
Any abnormalities were documented including presence/absence of wet dog shakes/back muscle contractions (WDS/BMC).
Dosing: Formulations were administered intravenously (i.v.) via the tail vein using a 25 G needle connected to a 1 cc syringe.
The exemplary compounds of Formula (I) were freshly prepared at the appropriate concentrations in 5% Tween-80 in saline.
Blood collection time (h): 0, […], 1 and 4
Volume/time-point: ˜0.25 mL (saphenous vein)
Instrumentation: AB Sciex QTRAP 4000 or 6500 MS/MS system equipped with an LC system with a binary pump, a solvent degasser, a thermostated column compartment, and a multiplate autosampler.
Analysis software: Phoenix® WinNonlin® 8.3 (Pharsight, Certara, Mountainview, CA).
Analysis methods: non-compartmental analysis, linear up/log down trapezoidal rule.
PK parameters: t1/2 and AUC0-tlast was estimated.
The Compounds of Formula (I) were freshly prepared at the appropriate concentrations in 5% Tween-80 in saline.
Instrumentation: AB Sciex QTRAP 4000 or 6500 MS/MS system equipped with an LC system with a binary pump, a solvent degasser, a thermostated column compartment and a multiplate autosampler.
PK parameters: t1/2 and AUC0-tlast will be estimated.

human 5-HT2C receptor = target: T1, human 5-HT2C receptor (Homo sapiens, UniProt P28335); assay: cell-based; details: calcium mobilization FLIPR; for Emax (% of serotonin): U2OS cells, relative to maximum response of serotonin; for EC50: stably transfected U2OS cells
T1 construct: expressed in transfected cells; host or cells: U2OS
T1 sequence (P28335 33-458): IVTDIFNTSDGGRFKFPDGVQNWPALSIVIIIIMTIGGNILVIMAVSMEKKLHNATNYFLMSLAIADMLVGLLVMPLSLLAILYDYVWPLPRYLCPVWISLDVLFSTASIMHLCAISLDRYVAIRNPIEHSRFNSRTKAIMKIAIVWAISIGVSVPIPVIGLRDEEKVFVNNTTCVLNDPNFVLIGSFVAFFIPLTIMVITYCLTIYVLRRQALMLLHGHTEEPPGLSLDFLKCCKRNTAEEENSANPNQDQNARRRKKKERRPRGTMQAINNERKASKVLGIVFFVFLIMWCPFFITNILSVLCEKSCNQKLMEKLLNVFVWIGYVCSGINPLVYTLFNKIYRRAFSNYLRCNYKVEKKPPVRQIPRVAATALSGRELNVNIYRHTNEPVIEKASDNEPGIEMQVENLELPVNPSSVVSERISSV

[2] = Plasma protein binding by equilibrium dialysis, mouse; assay type: in vitro ADME; details: Mouse plasma, 1 μM
Protocol: The final concentration of compound was 1 μM. The final concentration of DMSO was 0.5%. Ketoconazole was used as positive control in the assay.
The assay was performed in duplicate.
All calculations were carried out using Microsoft Excel. […] The percentages of bound compound were calculated as follows: […]
Ketoconazole was used as positive control in the assay.

[3] = intravenous, dose per Dose column (1.32-2.09 mg/kg), first animal (R07/R04/R01/R10), read-out: Plasma concentration
[4] = intravenous, dose per Dose column (1.32-2.09 mg/kg), mean of 3 rats, read-out: Plasma concentration, Mean ± SD
[5] = intravenous, dose per Dose column (1.32-2.09 mg/kg), second animal (R08/R05/R02/R11), read-out: Plasma concentration
[6] = intravenous, dose per Dose column (1.32-2.09 mg/kg), third animal (R09/R06/R03/R12), read-out: Plasma concentration
[7] = iv, rat plasma, i.v., dose per Dose column, estimated from 2 points only, first animal (R07/R04/R01/R10), read-out: Apparent t1/2 (converted)
[8] = iv, rat plasma, i.v., dose per Dose column, estimated from 2 points only, mean of 3 rats, read-out: Apparent t1/2, Mean ± SD (converted)
[9] = iv, rat plasma, i.v., dose per Dose column, estimated from 2 points only, second animal (R08/R05/R02/R11), read-out: Apparent t1/2 (converted)
[10] = iv, rat plasma, i.v., dose per Dose column, estimated from 2 points only, third animal (R09/R06/R03/R12), read-out: Apparent t1/2 (converted)
[11] = iv, rat plasma, i.v., dose per Dose column, first animal (R07/R04/R01/R10), read-out: AUC0-tlast
[12] = iv, rat plasma, i.v., dose per Dose column, mean of 3 rats, read-out: AUC0-tlast, Mean ± SD
[13] = iv, rat plasma, i.v., dose per Dose column, second animal (R08/R05/R02/R11), read-out: AUC0-tlast
[14] = iv, rat plasma, i.v., dose per Dose column, third animal (R09/R06/R03/R12), read-out: AUC0-tlast
[15] = iv, 1.19 mg/kg, rat plasma, i.v., dose 1.19 mg/kg, mean of 3 rats, read-out: Plasma concentration, Mean ± SD
[16] = iv, 1.19 mg/kg, rat plasma, i.v., dose 1.19 mg/kg, rat R01, read-out: Plasma concentration, R01
[17] = iv, 1.19 mg/kg, rat plasma, i.v., dose 1.19 mg/kg, rat R02, read-out: Plasma concentration, R02
[18] = iv, 1.19 mg/kg, rat plasma, i.v., dose 1.19 mg/kg, rat R03, read-out: Plasma concentration, R03

[2H]C([2H])(c1c[nH]c2ccc(OCCCCCN3C(=O)C4CCCCC4C3=O)cc12)[C@H]1CCCN1C([2H])([2H])[2H] (mixture of isomers) [Rac (R) I-248] gave a concentration at 0.25 h [1, 3] of 235 ng/mL, a concentration at 0.25 h [1, 4] of 377 ± 123 ng/mL and a concentration at 0.25 h [1, 5] of 437 ng/mL. It also gave a concentration at 0.25 h [1, 6] of 459 ng/mL, a concentration at 1 h [1, 3] of 134 ng/mL and a concentration at 1 h [1, 4] of 144 ± 15.9 ng/mL. For the same compound, the concentration at 1 h [1, 5] was 135 ng/mL, the concentration at 1 h [1, 6] was 162 ng/mL and the concentration at 4 h [1, 3] was 27.8 ng/mL. It also gave a concentration at 4 h [1, 4] of 18.8 ± 8.29 ng/mL, a concentration at 4 h [1, 5] of 11.5 ng/mL and a concentration at 4 h [1, 6] of 17 ng/mL. It also gave a half-life [1, 7] of 75 min, a half-life [1, 8] of 56.3 ± 16.1 min and a half-life [1, 9] of 44.8 min. It also gave a half-life [1, 10] of 49.4 min, an AUC(0-t) [1, 11] of 402 ng·h/mL and an AUC(0-t) [1, 12] of 474 ± 71 ng·h/mL. It also gave an AUC(0-t) [1, 13] of 477 ng·h/mL and an AUC(0-t) [1, 14] of 544 ng·h/mL.
For CSc1ccc2[nH]cc(C[C@H]3CCCN3C)c2c1 [(R) I-1, (R)-3-((1-Methylpyrrolidin-2-yl)methyl)-5-(methylthio)-1H-indole], the “Emax (% of serotonin)” value (human 5-HT2C receptor) was 95.27 % of serotonin, the EC50 (human 5-HT2C receptor) was 0.0006 µM and the recovery at 6 h, 1 µM ([2]; CD-1, mouse, plasma, equilibrium dialysis 6 hours) was 113%. For the same compound, the fraction unbound at 6 h, 1 μM ([2]; CD-1, equilibrium dialysis 6 hours, 37° C., read-out: % Bound (converted)) was 0.521, the “% Remaining @ 6 hours” value ([2]; 6 hours, 37° C.) was 112.85% and the half-life ([1]; iv, 1.19 mg/kg, rat plasma, i.v. 1.19 mg/kg, mean of 3 rats, estimated from 2 points only, read-out: Apparent t1/2, Mean ± SD (converted)) was 47.1 ± 10.4 min. The AUC(0-t) ([1]; iv, 1.19 mg/kg, rat plasma, i.v. 1.19 mg/kg, mean of 3 rats, read-out: AUC0-tlast, Mean ± SD) was 136 ± 22 ng·h/mL, the half-life ([1]; iv, 1.19 mg/kg, rat plasma, i.v. 1.19 mg/kg, rat R01, estimated from 2 points only, read-out: Apparent t1/2, R01 (converted)) was 58.5 min and the AUC(0-t) ([1]; iv, 1.19 mg/kg, rat plasma, i.v. 1.19 mg/kg, rat R01, read-out: AUC0-tlast, R01) was 151 ng·h/mL. It also gave a half-life ([1]; iv, 1.19 mg/kg, rat plasma, i.v. 1.19 mg/kg, rat R02, estimated from 2 points only, read-out: Apparent t1/2, R02 (converted)) of 37.9 min, an AUC(0-t) ([1]; iv, 1.19 mg/kg, rat plasma, i.v. 1.19 mg/kg, rat R02, read-out: AUC0-tlast, R02) of 111 ng·h/mL and a half-life ([1]; iv, 1.19 mg/kg, rat plasma, i.v. 1.19 mg/kg, rat R03, estimated from 2 points only, read-out: Apparent t1/2, R03 (converted)) of 44.9 min. It also gave an AUC(0-t) ([1]; iv, 1.19 mg/kg, rat plasma, i.v. 1.19 mg/kg, rat R03, read-out: AUC0-tlast, R03) of 147 ng·h/mL, a concentration at 0.25 h [1, 15] of 109 ± 12.9 ng/mL and a concentration at 0.25 h [1, 16] of 120 ng/mL. It also gave a concentration at 0.25 h [1, 17] of 112 ng/mL, a concentration at 0.25 h [1, 18] of 94.7 ng/mL and a concentration at 1 h [1, 15] of 46.1 ± 18.1 ng/mL. It also gave a concentration at 1 h [1, 16] of 42.3 ng/mL, a concentration at 1 h [1, 17] of 30.3 ng/mL and a concentration at 1 h [1, 18] of 65.8 ng/mL. For the same compound, the concentration at 4 h [1, 15] was 3.96 ± 2.8 ng/mL, the concentration at 4 h [1, 16] was 7.04 ng/mL and the concentration at 4 h [1, 17] was 1.56 ng/mL. It also gave a concentration at 4 h [1, 18] of 3.27 ng/mL.
In the case of [2H]C([2H])(c1c[nH]c2ccc(OCCCCCN3C(=O)c4ccccc4C3=O)cc12)[C@H]1CCCN1C([2H])([2H])[2H] [(R) I-245, (R)-2-(5-((3-((1-(Methyl-d3)pyrrolidin-2-yl)methyl-d2)-1H-indol-5-yl)oxy)pentyl)isoindoline-1,3-dione], the “Emax (% of serotonin)” value (human 5-HT2C receptor) is reported as 83.29 % of serotonin, the EC50 (human 5-HT2C receptor) is reported as 0.0423 µM and the concentration at 0.25 h [1, 3] is reported as 307 ng/mL. The concentration at 0.25 h [1, 4] was 178 ± 119 ng/mL, the concentration at 0.25 h [1, 5] was 154 ng/mL and the concentration at 0.25 h [1, 6] was 71.8 ng/mL. The concentration at 1 h [1, 3] was 170 ng/mL, the concentration at 1 h [1, 4] was 130 ± 36.6 ng/mL and the concentration at 1 h [1, 5] was 121 ng/mL. For the same compound, the concentration at 1 h [1, 6] was 98.3 ng/mL, the concentration at 4 h [1, 3] was 39.9 ng/mL and the concentration at 4 h [1, 4] was 43.9 ± 4.21 ng/mL. It also gave a concentration at 4 h [1, 5] of 43.6 ng/mL, a concentration at 4 h [1, 6] of 48.3 ng/mL and a half-life [1, 7] of 79.2 min. For the same compound, the half-life [1, 8] was 126 ± 48.4 min, the half-life [1, 9] was 123 min and the half-life [1, 10] was 176 min. The AUC(0-t) [1, 11] was 528 ng·h/mL, the AUC(0-t) [1, 12] was 397 ± 120 ng·h/mL and the AUC(0-t) [1, 13] was 370 ng·h/mL. For the same compound, the AUC(0-t) [1, 14] was 293 ng·h/mL.
With [2H]C([2H])(c1c[nH]c2ccc(OCCCCCN3C(=O)[C@H]4CCCC[C@H]4C3=O)cc12)[C@H]1CCCN1C([2H])([2H])[2H] [Cis (R) I-248, 2-(5-((3-(((R)-1-(Methyl-d3)pyrrolidin-2-yl)methyl-d2)-1H-indol-5-yl)oxy)pentyl)hexahydro-1H-isoindole-1,3(2H)-dione] the “Emax (% of serotonin)” value (human 5-HT2C receptor) was 89.99 % of serotonin and the EC50 (human 5-HT2C receptor) was 0.151 µM.
